Data taken from publication PMC11968506, “Toxicokinetics and analytical toxicology of the phenmetrazine-derived new psychoactive substance 3,4-methylenedioxyphenmetrazine studied by means of in vitro systems” (Archives of Toxicology, 2025).
Read-outs that look alike come from different tables or passages of the source.

How the values were obtained:
[1] = biological target: T1, CYP2B6 (Homo sapiens, UniProt P20813); test: CYP inhibition cocktail assay in pHLM, CYP2B6 (bupropion); conditions: inhibitor 20 µM, bupropion 30 µM, pHLM 0.4 mg/mL, 15 min; control without inhibitor = 100%
T1 sequence (P20813 1-491): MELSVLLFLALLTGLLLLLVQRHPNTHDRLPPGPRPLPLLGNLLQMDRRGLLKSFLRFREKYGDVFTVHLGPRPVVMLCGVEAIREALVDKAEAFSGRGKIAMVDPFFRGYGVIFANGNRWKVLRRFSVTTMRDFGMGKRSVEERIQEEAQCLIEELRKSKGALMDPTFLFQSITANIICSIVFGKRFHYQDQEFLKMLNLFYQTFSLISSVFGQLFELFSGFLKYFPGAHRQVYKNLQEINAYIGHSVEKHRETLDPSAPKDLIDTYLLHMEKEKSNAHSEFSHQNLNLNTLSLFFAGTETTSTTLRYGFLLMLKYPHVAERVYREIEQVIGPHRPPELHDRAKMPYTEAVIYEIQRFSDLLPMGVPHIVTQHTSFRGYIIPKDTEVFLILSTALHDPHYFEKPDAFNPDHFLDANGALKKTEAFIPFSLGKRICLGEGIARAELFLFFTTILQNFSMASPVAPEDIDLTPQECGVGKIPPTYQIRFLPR
Experimental: (§1) A modified dual-cocktail based method (Dinger et al. [2014b]) was used. Substrate cocktail A consisted of 8.9 µM dextromethorphan (CYP2D6), 86 µM testosterone (CYP3A4), 3.5 µM diclofenac (CYP2C9), and 12 µM phenacetin (CYP1A2). Substrate cocktail B included 30 µM bupropion (CYP2B6), 2 µM amodiaquine (CYP2C8) and 21 µM omeprazole (CYP2C19). Substrate concentrations were near their respective Michaelis–Menten constant (Km) values (Dinger et al. [2014a]) and all concentrations are final. Enzyme inhibition was investigated using a positive control, a test group, a control group, an interference group, and a negative control. In the test group, specific inhibitors were replaced by MDPM (20 µM). Instead of inhibitors, phosphate buffer was used in the control group. Enzymes were replaced with phosphate buffer in the negative control group. The interference group was incubated like the control group, but the reaction was stopped with 20 µM MDPM in acetonitrile, also containing 2.5 µM trimipramine-d3. All groups were incubated with a NADPH-regenerating system, consisting of 5 mM isocitrate, 2 U/mL isocitrate dehydrogenase, 5 mM Mg^2+, and 1.2 mM NADP^+. Further, substrate cocktail A or B, 90 mM phosphate buffer (pH 7.4), and 200 U/mL superoxide dismutase were added to each group. […] All groups were preincubated for 10 min at 37 °C. Then, pHLM (0.4 mg microsomal protein/mL) was added to each group except the negative control. Incubations were done for 15 min at 37 °C. Therefore, 50 µL of acetonitrile (− 20 °C) containing 2.5 µM trimipramine-d3 as internal standard was added. Incubations were done in triplicates and organic solvent in the incubation mixture was below 1% (Chauret et al. [1998]). Afterwards the samples were vortexed and centrifuged for 2 min at 18,407×g. 70 µL of the supernatant were transferred to autosampler vials and 10 µL were injected onto the LC-HRMS/MS system. Enzyme inhibition was evaluated by metabolite formation. […] The following settings were used: unpaired; one-tailed; significance level, 0.05; confidence intervals, 99%.

[2] = cited from earlier work
[3] = In vitro metabolism by pooled human liver S9 fraction; format: in vitro ADME; conditions: MDPM 25 µM, pHLS9 2 mg/mL, 60 and 360 min; tentative identification
Experimental: Incubations with pHLS9 were performed in accordance with previous publications and minor adjustments (Richter et al. [2017]). First, 25 μg/mL alamethicin (UGT reaction mix B), pHLS9 (2 mg microsomal protein/mL), 0.1 mM AcCoA, 2.3 mM acetylcarnitine, 8 U/mL carnitine acetyltransferase, 2.5 mM isocitrate, 0.8 U/mL isocitrate dehydrogenase, 100 U/mL superoxide dismutase, 0.6 mM NADP^+ and 2.5 mM Mg^2+ were preincubated for 10 min at 37 °C. Then, 2.5 mM UDP-glucuronic acid (UGT reaction mix A), 40 µM PAPS, 1.2 mM SAM, 1 mM DTT and 10 mM GSH were added. The reaction was started by adding the respective substrate MDPM, MDMA, or quetiapine (25 µM each). MDMA and quetiapine were incubated as positive controls. Negative control samples without enzymes and blank samples without substrates were incubated to identify not metabolically formed compounds and to confirm the absence of interfering compounds. […] Aliquots (50 µL) were transferred to a new reaction tube after 60 and 360 min. […] Samples were vortexed, stored at − 20 °C for 30 min, and centrifuged for 2 min at 18,407×g.

[4] = biological target: CYP2C9 (Homo sapiens, UniProt P11712); test: CYP inhibition cocktail assay in pHLM, CYP2C9 (diclofenac); conditions: inhibitor 20 µM, diclofenac 3.5 µM, pHLM 0.4 mg/mL, 15 min; control without inhibitor = 100%
Experimental: as §1

[5] = ref Alberto-Silva et al. 2024; cited from earlier work
[6] = biological target: T2, CYP2D6 (Homo sapiens, UniProt P10635); test: CYP inhibition cocktail assay in pHLM, CYP2D6 (dextromethorphan); conditions: inhibitor 20 µM, dextromethorphan, pHLM; versus control without inhibitor
Experimental: as §1

[7] = biological target: CYP2C19 (Homo sapiens, UniProt P33261); test: CYP inhibition cocktail assay in pHLM, CYP2C19 (omeprazole); conditions: inhibitor 20 µM, omeprazole 21 µM, pHLM 0.4 mg/mL, 15 min; control without inhibitor = 100%
Experimental: as §1

[8] = test system: CYP2C8; conditions: 100 µM trimethoprim; ref Niemi et al. 2004; cited from earlier work
[9] = biological target: T3, CYP2C8 (Homo sapiens, UniProt P10632); test: CYP inhibition cocktail assay in pHLM, CYP2C8 (amodiaquine); conditions: inhibitor 100 µM, amodiaquine 2 µM, pHLM 0.4 mg/mL, 15 min; control without inhibitor = 100%
T3 sequence (P10632 1-490): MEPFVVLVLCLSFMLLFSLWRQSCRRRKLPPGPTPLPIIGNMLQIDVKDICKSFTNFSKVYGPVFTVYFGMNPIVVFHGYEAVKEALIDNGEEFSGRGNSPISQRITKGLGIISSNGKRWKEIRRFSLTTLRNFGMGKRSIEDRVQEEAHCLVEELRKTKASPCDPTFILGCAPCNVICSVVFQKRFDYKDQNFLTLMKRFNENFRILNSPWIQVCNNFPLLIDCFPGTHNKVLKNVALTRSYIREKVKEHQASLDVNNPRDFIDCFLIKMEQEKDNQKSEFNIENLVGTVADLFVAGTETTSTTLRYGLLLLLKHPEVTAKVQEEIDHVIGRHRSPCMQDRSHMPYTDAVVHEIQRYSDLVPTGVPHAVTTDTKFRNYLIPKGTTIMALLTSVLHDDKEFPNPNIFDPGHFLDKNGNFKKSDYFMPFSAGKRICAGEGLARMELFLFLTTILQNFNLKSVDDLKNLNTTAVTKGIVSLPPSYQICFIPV
Experimental: as §1

[10] = In vitro metabolism by HepaRG cells; format: in vitro ADME, human; conditions: MDPM 25 µM and 250 µM, tentative identification
Experimental: Cell incubations were performed in a monolayer assay as previously described (Richter et al. [2019]) and in accordance with the manufacturer’s instructions. HepaRG cells were thawed and resuspended in 13.5 mL (~ 740,000 cells/mL) thaw and seed medium at 37 °C. Thaw and seed medium consisted of Williams E medium, 100 U/mL penicillin, 100 µg/mL streptomycin, GlutaMAX and HPRG670 supplement. Cells were handled under sterile conditions using a laminar flow bench class II (Thermo Scientific, TF, Schwerte, Germany). Aliquots of 100 µL cell suspension were seeded on collagen-coated 96-well plates (~ 74,000 cells/well). Evaporation was minimized by filling the outer wells with 100 µL thaw and seed medium. Cells were preincubated for 4 h in an incubator (Binder, Tuttlingen, Germany) at 37 °C, 95% air humidity, and 5% CO2. After preincubation, 50 µL of the thaw and seed medium was replaced with 50 µL MDPM solution (25 µM and 250 µM final concentrations), followed by an incubation for 24 h at 37 °C, 95% air humidity, and 5% CO2 atmosphere. MDMA or quetiapine (25 µM and 250 µM final concentrations, respectively) were incubated as positive controls. All incubations were done in triplicates. Each well contained 0.5% (v/v) DMSO. […]

[11] = biological target: T2, CYP2D6; test: Monooxygenase mapping (ten human cDNA-expressed CYP isoforms and FMO3); format: in vitro ADME; design: Then, pHLM (0.4 mg microsomal protein/mL) was added to each group except the negative control; tissue Discovery Life Sciences; host or cells: pooled human liver microsomes, 25 donors; conditions: MDPM 25 µM, CYP 50 pmol/mL each or FMO3 0.25 mg protein/mL, 90 and 270 min
Experimental: As described elsewhere (Wagmann et al. [2016]) and with minor modifications, MDPM (25 µM) was incubated with 2.5 mM isocitrate, 0.8 U/mL isocitrate dehydrogenase, 100 U/mL superoxide dismutase, 0.6 mM NADP^+, 2.5 mM Mg^2+ and CYP1A2, CYP2A6, CYP2B6, CYP2C8, CYP2C9, CYP2C19, CYP2D6, CYP2E1, CYP3A4, CYP3A5 (50 pmol/mL each), or FMO3 (0.25 mg protein/mL) for 90 and 270 min at 37 °C. For incubations with CYP2A6 or CYP2C9, phosphate buffer was replaced with 90 mM Tris buffer, according to the manufacturer’s guideline. Thirty µL aliquots were taken at both timepoints. The reaction was stopped using 20 µL acetonitrile (− 20 °C) with 2.5 µM trimipramine-d3 as an internal standard. All incubations were done in duplicates and concentrations are final. […] Negative control samples without enzymes and blank samples without substrate were incubated to identify not metabolically formed compounds and to confirm the absence of interfering compounds.

[12] = In vitro metabolism by pooled human liver microsomes; format: in vitro ADME; conditions: MDPM 25 µM, pHLM 1 mg/mL, 60 and 120 min; tentative identification
Experimental: Incubations with pHLM were in accordance with previous publications and minor modifications (Richter et al. [2017]). First, 2.5 mM isocitrate, 0.8 U/mL isocitrate dehydrogenase, 100 U/mL superoxide dismutase, 0.6 mM NADP^+, 2.5 mM Mg^2+ and pHLM (1 mg microsomal protein/mL) were preincubated for 10 min at 37 °C. […] Substances were incubated for 60 and 120 min at 37 °C. All concentrations are final concentrations, and incubations were done in duplicates. 50 µL aliquots were transferred to a new reaction tube at both timepoints. The reaction was stopped by adding 30 µL acetonitrile (− 20 °C) with 2.5 µM trimipramine-d3 as an internal standard. Negative control samples without enzymes and blank samples without substrates were performed to identify not metabolically formed compounds and to confirm the absence of interfering compounds.

T2 sequence (P10635 whole entry): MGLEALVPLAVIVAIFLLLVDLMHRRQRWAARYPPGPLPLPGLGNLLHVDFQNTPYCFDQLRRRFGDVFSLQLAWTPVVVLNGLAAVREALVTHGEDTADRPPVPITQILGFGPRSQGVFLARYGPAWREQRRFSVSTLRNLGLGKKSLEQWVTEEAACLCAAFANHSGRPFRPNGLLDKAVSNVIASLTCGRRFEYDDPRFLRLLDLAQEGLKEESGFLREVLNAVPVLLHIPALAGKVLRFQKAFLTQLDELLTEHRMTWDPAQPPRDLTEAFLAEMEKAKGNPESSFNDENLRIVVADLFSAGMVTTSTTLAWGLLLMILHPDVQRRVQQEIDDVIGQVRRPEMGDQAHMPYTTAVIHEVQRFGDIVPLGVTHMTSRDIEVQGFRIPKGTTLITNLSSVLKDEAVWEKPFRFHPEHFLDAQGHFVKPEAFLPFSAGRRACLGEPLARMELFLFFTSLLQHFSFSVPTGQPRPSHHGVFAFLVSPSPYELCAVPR
Chain of CYP2C19 (P33261 whole entry): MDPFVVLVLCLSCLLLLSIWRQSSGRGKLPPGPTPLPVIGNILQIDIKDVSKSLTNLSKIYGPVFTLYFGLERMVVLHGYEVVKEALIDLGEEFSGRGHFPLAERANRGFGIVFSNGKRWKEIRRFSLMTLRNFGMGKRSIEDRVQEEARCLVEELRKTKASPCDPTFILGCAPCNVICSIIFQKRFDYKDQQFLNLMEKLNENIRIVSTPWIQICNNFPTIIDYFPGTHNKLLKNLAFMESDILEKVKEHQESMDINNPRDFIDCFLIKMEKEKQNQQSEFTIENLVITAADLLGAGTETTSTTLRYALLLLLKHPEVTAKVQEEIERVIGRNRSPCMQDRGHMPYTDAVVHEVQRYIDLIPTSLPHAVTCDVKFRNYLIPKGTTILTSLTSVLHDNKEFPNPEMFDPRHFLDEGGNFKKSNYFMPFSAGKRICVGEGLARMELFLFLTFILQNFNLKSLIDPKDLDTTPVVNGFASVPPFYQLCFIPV
Chain of CYP2C9 (P11712 whole entry): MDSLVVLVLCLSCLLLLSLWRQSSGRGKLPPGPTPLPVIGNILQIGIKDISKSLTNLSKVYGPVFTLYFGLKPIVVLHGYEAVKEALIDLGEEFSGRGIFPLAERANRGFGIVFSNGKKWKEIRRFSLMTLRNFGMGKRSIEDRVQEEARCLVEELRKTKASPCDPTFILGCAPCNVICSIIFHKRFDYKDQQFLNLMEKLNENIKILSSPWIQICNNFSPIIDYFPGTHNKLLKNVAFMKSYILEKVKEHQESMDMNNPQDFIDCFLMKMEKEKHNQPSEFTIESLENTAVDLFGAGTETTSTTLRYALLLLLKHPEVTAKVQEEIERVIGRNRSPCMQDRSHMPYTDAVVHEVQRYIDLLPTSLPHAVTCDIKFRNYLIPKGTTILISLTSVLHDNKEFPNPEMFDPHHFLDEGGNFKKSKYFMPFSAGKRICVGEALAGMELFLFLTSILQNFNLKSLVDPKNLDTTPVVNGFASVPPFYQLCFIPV

## CN[C@H]1CC[C@@H](c2ccc(Cl)c(Cl)c2)c2ccccc21 [Sertraline, sertraline, reference compound]
[1]
  CYP2B6 metabolite formation: 24%

## CC1NCCOC1c1ccccc1 (stereo not drawn) [phenmetrazine]
[2]; ref Franksson and Anggard 1970
  plasma protein binding (PPB): 20%

## COc1cc(C2OCCNC2C)ccc1O (stereo not drawn) [M2]
[3]
  metabolite detection in pHLS9 incubations: found

## Nc1ccc(S(=O)(=O)Nc2ccnn2-c2ccccc2)cc1 [Sulfaphenazole, sulfaphenazole, reference compound]
[4]
  CYP2C9 metabolite formation: 9%

## CNC(C)Cc1ccc2c(c1)OCO2 (stereo not drawn) [MDMA, 3,4-methylenedioxymethamphetamine]
[2]; ref Wan Aasim et al. 2017
  plasma protein binding (PPB): 43–51%
[5]
  in vitro half-life: over 150 min

## C=C[C@H]1C[N@@]2CC[C@H]1C[C@@H]2[C@@H](O)c1ccnc2ccc(OC)cc12 [Quinidine, quinidine, reference compound]
[6]
  decrease in CYP2D6 activity (inhibition): 99%

## CC(N)Cc1ccccc1 (stereo not drawn) [amphetamine]
[2]; ref Franksson and Anggard 1970, Losacker et al. 2021
  plasma protein binding (PPB): 20–30%

## OC(Cn1cncn1)(Cn1cncn1)c1ccc(F)cc1F [Fluconazole, fluconazole, reference compound]
[7]
  CYP2C19 metabolite formation: 48%

## COc1cc(Cc2cnc(N)nc2N)cc(OC)c1OC [Trimethoprim, trimethoprim, reference compound]
[8]
  maximum inhibition of CYP2C8 activity: ≤ 40%
[9]
  CYP2C8 metabolite formation: 81%

## CC1NCCOC1c1ccc(O)c(O)c1 (stereo not drawn) [M1, Demethylenyl-MDPM]
[10]
  metabolite detection in HepaRG incubations: could not be identified
[11]
  isozymes forming the demethylenyl metabolite (O-demethylenation of MDPM): only found in CYP2D6 incubations
[3]
  metabolite detection in pHLS9 incubations: could not be identified
[12]
  metabolite detection in pHLM incubations: found
